# Data from PubChem BioAssay AID2060490 (Molecular Pharmacology Branch, DTP, NCI, 2025).
# System: 885512-296-R-J2-PDC complex spheroid viability
# Experiment: Anticancer human tumor 885512-296-R-J2-PDC patient-derived breast carcinoma cell line growth inhibition [GQUAD]
# Settings: for IC50: curve of first compound; for viability, T/C: stronger effect = lower value
# Source text: DNA G-quadruplex Stabilizer Agents in Combinations in Complex Spheroids
# A high-throughput screen of multi-cell type tumor spheroids was designed to identify active combinations of DNA G-quadruplex stabilizer agents and targeted small molecules. Complex spheroids include a stromal component modeled by human endothelial cells (HUVEC) and fibroblasts modeled by human mesenchymal stem cells (MSCs). The concentration ranges selected for each drug and investigational agent were based upon clinically achievable concentrations if the clinical Cmax of the agent was known.
# Compounds. The drugs and investigational agents: pidnarulex (CX-5461; NSC782164), APTO-253 (NSC789042), BRACO-19 (NSC847499), peposertib (NSC802822), ceralasertib (NSC780249), elimusertib (NSC800525), camonsertib (NSC841442), AZD-1390 (NSC803789), olaparib (NSC753686), talazoparib (NSC767125), ART-558 (NSC835418), sotorasib (NSC818433), MRTX-1133 (NSC836407), SN-38 (NSC673596), topotecan (NSC609699), etoposide (NSC141540), doxorubicin (NSC123127), gemcitabine (NSC613327), 5-fluorouracil (NSC19893), paclitaxel (NSC125973), vemurafenib (NSC761431), panobinostat (NSC761190), R-306465 (JNJ-16241199; NSC773264), adavosertib (NSC754352), TP-3654 (NSC805149), carboplatin (NSC241240), KSQ-4279 (NSC840948), and staurosporine (NSC755774) were obtained from the National Cancer Institute (NCI) Developmental Therapeutics Program Chemical Repository (34). The FDA-approved anticancer drug set is available from the NCI Developmental Therapeutics Program. […] The stock solutions were prepared in dimethyl sulfoxide (DMSO, Sigma-Aldrich, St. Louis, MO, cat. D2650) at 800-fold the tested concentration and stored at -70 degrees C prior to their use. All drugs and investigational agents were tested over a range starting from a high concentration at or near the clinical Cmax and decreasing in half-log increments. If the clinical Cmax for an agent had not been determined, the highest concentration tested was 10 microM.
# 2.3 Cell Culture. All cells were maintained in an incubator at 37 degrees C and 5% CO2 with 95% humidity. The PDC lines were cultured according to standard operating procedures established by the NCI PDMR. All PDCs were thawed and cultured in Matrigel-coated flasks prepared with a working solution of 1X Ham's F-12 nutrient mix, without supplementation (Invitrogen, cat. 11765054), 100 U/mL penicillin-streptomycin (Invitrogen, cat. 15140122), and 2.5% Matrigel (Corning Inc., cat. 354248) for the first three passages. The 857933-349-R-J2-PDC line was cultured in 6C/Colon 1B media, which includes advanced DMEM/F-12 (Thermo Fisher Scientific, cat. 12634028), 10 mM HEPES (Thermo Fisher Scientific, cat. 15630080), 1X GlutaMAX supplement (Thermo Fisher Scientific, cat. 35050061), 0.1 mg/mL primocin (InvivoGen, cat. ant-pm-2), 10% defined fetal bovine serum, heat inactivated (HyClone Laboratories Inc., cat. SH30070.03HI), 50% L-WRN conditioned media (ATCC, cat. CRL-3276), 1.25 mM N-Acetyl-L-cysteine (Sigma-Aldrich, cat. A9165), 10 mM nicotinamide (Sigma-Aldrich, cat. N0636), 1X B-27 supplement (Thermo Fisher Scientific, cat. 17504044), 1X N-2 supplement (Thermo Fisher Scientific, cat. 17502048), 10 microM Y-27632 dihydrochloride (Tocris Bioscience, cat. 1254), and 50 ng/mL human EGF recombinant protein (Thermo Fisher Scientific, cat. PHG0311). The 485176-168-R4-J1-PDC line was cultured in Panc media, which includes all 6C/Colon 1B media components plus 100 ng/mL human FGF-10 (Thermo Fisher Scientific, cat. 100-26), 500 nM SB-431542 (Selleckchem, cat. S1067), and gastrin (Tocris, cat. 3006).
# […]
# [1] = second compound 0.0316 µM, first compound 0.0316 µM
# [2] = second compound 0.0316 µM, first compound 0.1 µM
# [3] = second compound 0.0316 µM, first compound 0.316 µM
# [4] = second compound 0.0316 µM, first compound 1 µM
# [5] = second compound 0.0316 µM, first compound 3.16 µM
# [6] = second compound 0.0316 µM, first compound 10 µM
# [7] = second compound 0.1 µM, first compound 0.0316 µM
# [8] = second compound 0.1 µM, first compound 0.1 µM
# [9] = second compound 0.1 µM, first compound 0.316 µM
# [10] = second compound 0.1 µM, first compound 1 µM
# [11] = second compound 0.1 µM, first compound 3.16 µM
# [12] = second compound 0.1 µM, first compound 10 µM
# [13] = second compound 0.316 µM, first compound 0.0316 µM
# [14] = second compound 0.316 µM, first compound 0.1 µM
# [15] = second compound 0.316 µM, first compound 0.316 µM
# [16] = second compound 0.316 µM, first compound 1 µM
# [17] = second compound 0.316 µM, first compound 3.16 µM
# [18] = second compound 0.316 µM, first compound 10 µM
# [19] = second compound 1 µM, first compound 0.0316 µM
# [20] = second compound 1 µM, first compound 0.1 µM
# [21] = second compound 1 µM, first compound 0.316 µM
# [22] = second compound 1 µM, first compound 1 µM
# [23] = second compound 1 µM, first compound 3.16 µM
# [24] = second compound 1 µM, first compound 10 µM
# [25] = second compound 3.16 µM, first compound 0.0316 µM
# [26] = second compound 3.16 µM, first compound 0.1 µM
# [27] = second compound 3.16 µM, first compound 0.316 µM
# [28] = second compound 3.16 µM, first compound 1 µM
# [29] = second compound 3.16 µM, first compound 3.16 µM
# [30] = second compound 3.16 µM, first compound 10 µM
# [31] = second compound 10 µM, first compound 0.0316 µM
# [32] = second compound 10 µM, first compound 0.1 µM
# [33] = second compound 10 µM, first compound 0.316 µM
# [34] = second compound 10 µM, first compound 1 µM
# [35] = second compound 10 µM, first compound 3.16 µM
# [36] = second compound 10 µM, first compound 10 µM
# 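Also: spheroids exposed to the compounds for one week.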
# 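For viability, T/C in this document: percent of tumor spheroid viability relative to DMSO vehicle control wells.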
compound,measurement,setting,value
COc1cccc2c1C(=O)c1c(O)c3c(c(O)c1C2=O)CC(O)(C(=O)CO)CC3OC1CC(N)C(O)C(C)O1 (stereo unspecified) + CN(C)c1ccc(Nc2c3ccc(NC(=O)CCN4CCCC4)cc3nc3cc(NC(=O)CCN4CCCC4)ccc23)cc1,IC50,second compound 0.0316 µM,69.7 nM
same,IC50,second compound 0.1 µM,72.6 nM
same,IC50,second compound 0.316 µM,78.8 nM
same,IC50,second compound 1 µM,76.6 nM
same,IC50,second compound 3.16 µM,70.6 nM
same,IC50,second compound 10 µM,< 31.6 nM
same,"viability, T/C",[1],83.5%
same,"viability, T/C",[2],29.8%
same,"viability, T/C",[3],23.5%
same,"viability, T/C",[4],6.89%
same,"viability, T/C",[5],0.38%
same,"viability, T/C",[6],3.01%
same,"viability, T/C",[7],90.9%
same,"viability, T/C",[8],31.5%
same,"viability, T/C",[9],18.5%
same,"viability, T/C",[10],8.24%
same,"viability, T/C",[11],1.04%
same,"viability, T/C",[12],2.8%
same,"viability, T/C",[13],95.3%
same,"viability, T/C",[14],35.2%
same,"viability, T/C",[15],20.9%
same,"viability, T/C",[16],7.15%
same,"viability, T/C",[17],1.27%
same,"viability, T/C",[18],3.37%
same,"viability, T/C",[19],95%
same,"viability, T/C",[20],30%
same,"viability, T/C",[21],26.1%
same,"viability, T/C",[22],8.92%
same,"viability, T/C",[23],0.75%
same,"viability, T/C",[24],3.6%
same,"viability, T/C",[25],81.5%
same,"viability, T/C",[26],34.8%
same,"viability, T/C",[27],18.1%
same,"viability, T/C",[28],8.3%
same,"viability, T/C",[29],3.01%
same,"viability, T/C",[30],2.07%
same,"viability, T/C",[31],26.5%
same,"viability, T/C",[32],20%
same,"viability, T/C",[33],9.35%
same,"viability, T/C",[34],5.9%
same,"viability, T/C",[35],0.9%
same,"viability, T/C",[36],1.52%
CC1COCCN1c1cc(C2(S(C)(=N)=O)CC2)nc(-c2ccnc3[nH]ccc23)n1 (stereo unspecified) + CN(C)c1ccc(Nc2c3ccc(NC(=O)CCN4CCCC4)cc3nc3cc(NC(=O)CCN4CCCC4)ccc23)cc1,IC50,second compound 0.0316 µM,800 nM
same,IC50,second compound 0.1 µM,795 nM
same,IC50,second compound 0.316 µM,765 nM
same,IC50,second compound 1 µM,729 nM
same,IC50,second compound 3.16 µM,744 nM
same,IC50,second compound 10 µM,< 31.6 nM
same,"viability, T/C",[1],102%
same,"viability, T/C",[2],90.4%
same,"viability, T/C",[3],93%
same,"viability, T/C",[4],39.7%
same,"viability, T/C",[5],5.75%
same,"viability, T/C",[6],3.04%
same,"viability, T/C",[7],104%
same,"viability, T/C",[8],92.5%
same,"viability, T/C",[9],90.7%
same,"viability, T/C",[10],39.9%
same,"viability, T/C",[11],6.39%
same,"viability, T/C",[12],2.92%
same,"viability, T/C",[13],110%
same,"viability, T/C",[14],102%
same,"viability, T/C",[15],87.1%
same,"viability, T/C",[16],39.5%
same,"viability, T/C",[17],6.6%
same,"viability, T/C",[18],4.64%
same,"viability, T/C",[19],97.3%
same,"viability, T/C",[20],90.8%
same,"viability, T/C",[21],85.1%
same,"viability, T/C",[22],36.9%
same,"viability, T/C",[23],6.12%
same,"viability, T/C",[24],3.44%
same,"viability, T/C",[25],96.7%
same,"viability, T/C",[26],98.4%
same,"viability, T/C",[27],100%
same,"viability, T/C",[28],33.3%
same,"viability, T/C",[29],6.38%
same,"viability, T/C",[30],3.89%
same,"viability, T/C",[31],15.1%
same,"viability, T/C",[32],20.8%
same,"viability, T/C",[33],21.7%
same,"viability, T/C",[34],11.7%
same,"viability, T/C",[35],7.12%
same,"viability, T/C",[36],4.27%
CC(=O)O[C@H]1C(=O)[C@@]2(C)[C@H]([C@H](OC(=O)c3ccccc3)[C@]3(O)C[C@H](OC(=O)[C@H](O)[C@@H](NC(=O)c4ccccc4)c4ccccc4)C(C)=C1C3(C)C)[C@]1(OC(C)=O)CO[C@@H]1C[C@@H]2O + Cc1cnc(CNC(=O)c2c(=O)c3ccc(N4CCCN(C)CC4)nc3n3c2sc2ccccc23)cn1,IC50,second compound 0.0316 µM,< 31.6 nM
same,IC50,second compound 0.1 µM,< 31.6 nM
same,IC50,second compound 0.316 µM,< 31.6 nM
same,IC50,second compound 1 µM,< 31.6 nM
same,IC50,second compound 3.16 µM,< 31.6 nM
same,IC50,second compound 10 µM,< 31.6 nM
same,"viability, T/C",[1],11.1%
same,"viability, T/C",[2],3.65%
same,"viability, T/C",[3],3.53%
same,"viability, T/C",[4],4.58%
same,"viability, T/C",[5],3.52%
same,"viability, T/C",[6],3.97%
same,"viability, T/C",[7],7.92%
same,"viability, T/C",[8],4.41%
same,"viability, T/C",[9],6.02%
same,"viability, T/C",[10],4.78%
same,"viability, T/C",[11],4.71%
same,"viability, T/C",[12],4.43%
same,"viability, T/C",[13],7.35%
same,"viability, T/C",[14],6.45%
same,"viability, T/C",[15],5.89%
same,"viability, T/C",[16],7.32%
same,"viability, T/C",[17],6.29%
same,"viability, T/C",[18],6.52%
same,"viability, T/C",[19],7.81%
same,"viability, T/C",[20],6.34%
same,"viability, T/C",[21],5.06%
same,"viability, T/C",[22],7.14%
same,"viability, T/C",[23],6.19%
same,"viability, T/C",[24],7.74%
same,"viability, T/C",[25],12.7%
same,"viability, T/C",[26],0.54%
same,"viability, T/C",[27],0.25%
same,"viability, T/C",[28],0.47%
same,"viability, T/C",[29],0.25%
same,"viability, T/C",[30],0.18%
same,"viability, T/C",[31],0.12%
same,"viability, T/C",[32],0.14%
same,"viability, T/C",[33],0.14%
same,"viability, T/C",[34],0.12%
same,"viability, T/C",[35],0.15%
same,"viability, T/C",[36],0.16%
